Data published in patent US10646600B2, “HER2 polypeptides useful for imaging and monitoring tumors and cancers” (GE HEALTHCARE LIMITED, priority 2013, dated 2020).
“Also recorded” adds a separate entry of the source.

Experiments:
MCF7-p95HER2 = test: Biodistribution, MCF7-p95HER2 tumor; assay type: in vivo, mice; settings: 60 min
Description: (§1) Mice were sacrificed at different time points by exsanguination.

SKOV-3 cells = test: In vitro uptake assay in SKOV-3 cells (blocking, siRNA, drug treatment, specific activity); assay type: cell-based, human
Protocol: For siRNA-mediated HER2 knockdown, SKOV-3 cells were transfected with 25 nM scramble control (SCR; Dharmacon, Lafayette, Colo., ON-TARGETplus Non-targeting Pool, Cat. Nr: D-001810-10-05) or HER2-targeting siRNA (Invitrogen ERBB2 Silencer® Select Validated siRNA; Cat. Nr: 4457298) by reverse wet transfection with Lipofectamine RNAiMAX (Invitrogen) according to manufacturer's instructions. 3×10^5 cells were seeded in 12-well plates 48 h prior to uptake experiment. Target knockdown was verified by western blotting on cells that were transfected in parallel.
For all uptake studies in response to drug treatment, 2.5×10^5 SKOV-3 cells were seeded in complete medium 48 h prior to uptake experiments.
For baseline uptake in HER2 positive or negative lineages, 3×10^5 cells were seeded in complete media in 12-well plates (Corning, Tewksbury Mass.) and allowed to recover overnight. Cells were washed twice with serum-free medium and pulsed with 370 KBq in 500 μL serum-free medium for one h. For blocking studies, cells were co-incubated with tracer and 0.5 mg/mL cold unlabeled [^19F]GE-226[SEQ ID NO 1].
(§2) Cells were washed with PBS, trypsinized, neutralized with complete medium and centrifuged. The pellet was washed three times with PBS and lysed in 120 μL RIPA buffer (Sigma-Aldrich). The radioactivity of 100 μL lysate was counted on a Packard Cobra II gamma counter (Perkin Elmer). Radioactivity was normalized to applied radioactivity and protein content, which was determined for each sample by BCA assay (Pierce, Rockford, Ill.).

[1] = system: MCF7 and MCF7-p95HER2 xenografts; test: PET-CT imaging and kinetic modeling, HER2 negative xenografts; assay type: in vivo, mice; settings: HER2 negative tumors
Description: Mice were anesthetized through isoflurane inhalation and scanned on a dedicated small animal PET-CT scanner (Siemens Multimodality Inveon, Erlangen, Germany). Low dose CT scans were first acquired (80 kVp, 0.5 mA, 220 degree rotation, 600 ms per degree exposure time, 80 μm reconstruction pixel size) for PET attenuation correction and to obtain an anatomical reference. PET images were acquired following a bolus i.v. injection of approximately 3.7 MBq [^18F]GE-226 in the tail vein. Dynamic emission scans were acquired in list mode format over 60 minutes. The acquired data were sorted into 0.5-mm sinogram bins and 19 time frames for image reconstruction by filtered back projection (4×15 seconds and 4×60 seconds followed by 11×300 seconds). The Siemens Inveon Research Workplace software was used for visualization of radiotracer uptake. 30 to 60-minute cumulative images of the dynamic data were employed to define 3-dimensional (3D) regions of interest (ROI). […] The count densities were averaged for all ROIs at each time point to obtain time versus radioactivity curves (TAC). Tumor TACs were normalized to injected dose measured by a VDC-304 dose calibrator (Veenstra Instruments, Joure, Netherlands) and normalized uptake was expressed as percentage injected dose per mL tissue (NUV; % ID/mL). […]

HER2 positive cell lines = test: In vitro uptake assay, HER2 positive cell lines; assay type: cell-based, human
Description: MCF7-vector (piRES), MCF7-p95HER2 and MCF7-HER2 cells were a kind gift of Jose Baselga's laboratory (17). MCF7 clones, MDA-MB-231 (ATCC, Manassas, Va.), MDA-MB-361 (Sigma-Aldrich), SKBR-3 (ATCC) and SKOV-3 (Sigma-Aldrich) cells were maintained in DMEM. AGS (Sigma-Aldrich), HGC-27 (Sigma-Aldrich), NCI-N87 (ATCC) and OE-33 (ATCC) cells were maintained in RPMI (Sigma-Aldrich). A431 cells (Sigma-Aldrich) were maintained in MEM Eagle medium (Sigma-Aldrich). Growth media were supplemented with 10% FCS (Lonza, Basel, Switzerland), glutamine and antibiotics (both Invitrogen, Paisley, United Kingdom). A431 cells were additionally supplemented with 1% non-essential amino acids. All cells were cultured at 37° C. in a humidified atmosphere containing 5% CO2.
For baseline uptake in HER2 positive or negative lineages, 3×10^5 cells were seeded in complete media in 12-well plates (Corning, Tewksbury Mass.) and allowed to recover overnight. Cells were washed twice with serum-free medium and pulsed with 370 KBq in 500 μL serum-free medium for one h. […]
as §2, with “The pellet was washed three times with PBS and lysed in 120 μL RIPA buffer (Sigma-Aldrich).” left out, “Ill.). […]” for “Ill.).”

MCF7-HER2 = test: Biodistribution, MCF7-HER2 tumor; assay type: in vivo, mice; settings: 60 min
Description: as §1

Substance | Tissue uptake, MCF7-p95HER2 (MCF7-p95HER2) | tracer uptake in comparison to freshly prepared tracer (SKOV-3 cells; incubation initiated 70 minutes later (specific activity)) | tracer uptake in comparison to freshly prepared tracer (SKOV-3 cells; incubation initiated 140 minutes later (specific activity)) | NUV60 ([1]; PET, 60 minutes) | Ki (net irreversible uptake rate) ([1]; two-tissue irreversible compartmental model) | dependence of uptake/binding on EGFR (HER2 positive cell lines) | Tissue uptake, MCF7-HER2 (MCF7-HER2) | reduction of [18F]GE-226 uptake by blocking (SKOV-3 cells; co-incubation with 0.5 mg/mL cold [19F]GE-226, 60 minutes) | [18F]GE-226 uptake compared to control cells (100±12%) (SKOV-3 cells; co-incubation with large excess of 19F analogue)
[^18F]GE-226: HER2-binding 18F-radiolabelled Affibody molecule ZHER2:2891 | 6.55 ± 0.13 % ID/g tissue | 39.5±8.5% | 24.9±3.8% | 6.1±0.7 % ID/mL | 0.0069±0.0014 mL/cm^3/min | independent of presence of other targets like EGFR; also recorded: independent of expression | 11.06 ± 3.31 % ID/g tissue |  | 
[^19F]GE-226: cold unlabeled non-radioactive 19F analogue of the tracer, used for SPR and blocking |  |  |  |  |  |  |  | 96.8±2.6% | 3.1±2.6%
